Measurements published in US12459922B2 (Gilead Sciences, Inc., priority 2022, dated 2025).

Each compound was assayed on endogenous cellular STAT1 (phosphorylated at Tyr701) in NCI-H1373 cells (assay: Phospho-STAT1 (Tyr701) LANCE Ultra TR-FRET Detection Assay). Conditions: 48 hours, phospho-STAT1 (Tyr701) induction, read-out: NH1373 pSTAT1 EC50.
Assay type: cell-based
In the case of `Cc1cnc(-c2cc3ccn(C[C@@H]4CCC[C@H](Nc5cn[nH]c(=O)c5C(F)(F)F)C4)c(=O)c3cc2F)nc1` [Example 242], the EC50 is reported as 9.44 nM.

Same assay, conditions: Homo sapiens, NCI-H1373, 48 h, phospho-STAT1 (Tyr701) induction, read-out: NH1373 pSTAT1 EC50
With `C[C@@H](CCCn1ccc2cc(-c3ncc(Cl)cn3)c(F)cc2c1=O)Nc1cn[nH]c(=O)c1C(F)(F)F` [Example 98, (S)-6-(5-chloropyrimidin-2-yl)-7-fluoro-2-(4-((6-oxo-5-(trifluoromethyl)-1,6-dihydropyridazin-4-yl)amino)pentyl)isoquinolin-1(2H)-one] the EC50 was 9.67 nM. Compound `O=c1[nH]ncc(N[C@H]2COC[C@@H](Cn3ccc4cc(-c5ncc(C(F)(F)F)cn5)c(F)cc4c3=O)C2)c1C(F)(F)F` [Example 229, 7-fluoro-2-(((3R,5R)-5-((6-oxo-5-(trifluoromethyl)-1,6-dihydropyridazin-4-yl)amino)tetrahydro-2H-pyran-3-yl)methyl)-6-(5-(trifluoromethyl)pyrimidin-2-yl)isoquinolin-1(2H)-one] has an EC50 of 72.5 nM. With `O=c1[nH]ncc(N[C@H]2CCC[C@@H](Cn3ccc4cc(-c5cnc(C6COC6)cn5)c(F)cc4c3=O)C2)c1C(F)(F)F` [Example 266, 7-fluoro-6-(5-(oxetan-3-yl)pyrazin-2-yl)-2-(((1R,3S)-3-((6-oxo-5-(trifluoromethyl)-1,6-dihydropyridazin-4-yl)amino)cyclohexyl)methyl)isoquinolin-1(2H)-one] the EC50 was 187 nM. `O=c1[nH]ncc(N[C@H](CCCn2cnc3cc(-c4ncc(C(F)(F)F)cn4)c(F)cc3c2=O)C2CC2)c1C(F)(F)F` [Example 471, 3-[(4R)-4-cyclopropyl-4-[[6-oxo-5-(trifluoromethyl)-1H-pyridazin-4-yl]amino]butyl]-6-fluoro-7-[5-(trifluoromethyl)pyrimidin-2-yl]quinazolin-4-one] gave an EC50 of 23.2 nM. Work on `CC[C@@H](CCCn1ccc2cc(-c3ncc(OC)c(N)n3)c(F)cc2c1=O)Nc1cn[nH]c(=O)c1C(F)(F)F` [Example 343, (S)-6-(4-amino-5-methoxypyrimidin-2-yl)-7-fluoro-2-(4-((6-oxo-5-(trifluoromethyl)-1,6-dihydropyridazin-4-yl)amino)hexyl)isoquinolin-1(2H)-one] yielded an EC50 of 3.56 nM. `O=c1[nH]ncc(N[C@H]2CCC[C@@H](Cn3ccc4cc(-c5ccc(C(F)(F)F)cn5)c(F)cc4c3=O)C2)c1C(F)(F)F` [Example 268, 7-fluoro-2-(((1R,3S)-3-((6-oxo-5-(trifluoromethyl)-1,6-dihydropyridazin-4-yl)amino)cyclohexyl)methyl)-6-(5-(trifluoromethyl)pyridin-2-yl)isoquinolin-1(2H)-one] gave an EC50 of 13 nM. With `CCOc1ccc(-c2cc3ccn(CCC[C@H](C)Nc4cn[nH]c(=O)c4C(F)(F)F)c(=O)c3cc2F)nc1N` [Example 193, (S)-6-(6-amino-5-ethoxypyridin-2-yl)-7-fluoro-2-(4-((6-oxo-5-(trifluoromethyl)-1,6-dihydropyridazin-4-yl)amino)pentyl)isoquinolin-1(2H)-one] the EC50 was 22.3 nM. With `CC[C@@H](CCCn1ccc2cc(-c3ncc(C(F)(F)F)cn3)c(F)c(F)c2c1=O)Nc1cn[nH]c(=O)c1C(F)(F)F` [Example 353, (S)-7,8-difluoro-2-(4-((6-oxo-5-(trifluoromethyl)-1,6-dihydropyridazin-4-yl)amino)hexyl)-6-(5-(trifluoromethyl)pyrimidin-2-yl)isoquinolin-1(2H)-one] the EC50 was 16.1 nM. `Nc1cc(-c2cc3ccn(C[C@@H]4CCC[C@H](Nc5cn[nH]c(=O)c5C(F)(F)F)C4)c(=O)c3cc2F)cnc1C(F)(F)F` [Example 271, 6-(5-amino-6-(trifluoromethyl)pyridin-3-yl)-7-fluoro-2-(((1R,3S)-3-((6-oxo-5-(trifluoromethyl)-1,6-dihydropyridazin-4-yl)amino)cyclohexyl)methyl)isoquinolin-1(2H)-one] was tested, and the EC50 was 211 nM. `C[C@@H](CCCn1ccc2cc(-c3ncc(C(F)F)c(NCCO)n3)c(F)cc2c1=O)Nc1cn[nH]c(=O)c1C(F)(F)F` [Example 222, (S)-6-(5-(difluoromethyl)-4-((2-hydroxyethyl)amino)pyrimidin-2-yl)-7-fluoro-2-(4-((6-oxo-5-(trifluoromethyl)-1,6-dihydropyridazin-4-yl)amino)pentyl)isoquinolin-1(2H)-one] gave an EC50 of 258 nM. Work on `C[C@@H](C[C@@H](O)Cn1ccc2cc(-c3ncc(C(F)(F)F)cn3)c(F)cc2c1=O)Nc1cn[nH]c(=O)c1C(F)(F)F` (single isomer, unassigned) [Example 480] yielded an EC50 of 4.14 nM. `C[C@@H](C[C@H](O)Cn1ccc2cc(-c3ncc(C(F)(F)F)cn3)c(F)cc2c1=O)Nc1cn[nH]c(=O)c1C(F)(F)F` (single isomer, unassigned) [Example 479] was tested, and the EC50 was 82.8 nM. `Nc1nc(-c2cc3ccn(C[C@@H]4CCC[C@H](Nc5cn[nH]c(=O)c5C(F)(F)F)C4)c(=O)c3cc2F)ncc1Cl` [Example 250, 6-(4-amino-5-chloropyrimidin-2-yl)-7-fluoro-2-(((1R,3S)-3-((6-oxo-5-(trifluoromethyl)-1,6-dihydropyridazin-4-yl)amino)cyclohexyl)methyl)isoquinolin-1(2H)-one] showed an EC50 of 4.71 nM. Work on `O=c1[nH]ncc(N[C@H]2CCC[C@@H](Cn3ccc4cc(-c5ncc(C(F)(F)F)cn5)c(F)cc4c3=O)C2)c1C(F)(F)F` [Example 183, 7-fluoro-2-[[(1R,3S)-3-[[6-oxo-5-(trifluoromethyl)-1H-pyridazin-4-yl]amino]cyclohexyl]methyl]-6-[5-(trifluoromethyl)pyrimidin-2-yl]isoquinolin-1-one] yielded an EC50 of 6.39 nM. In the case of `C[C@@H](CCCn1ccc2cc(-c3ncc(OC(F)F)c(N)n3)c(F)cc2c1=O)Nc1cn[nH]c(=O)c1C(F)(F)F` [Example 194, (S)-6-(4-amino-5-(difluoromethoxy)pyrimidin-2-yl)-7-fluoro-2-(4-((6-oxo-5-(trifluoromethyl)-1,6-dihydropyridazin-4-yl)amino)pentyl)isoquinolin-1(2H)-one], the EC50 is reported as 6.6 nM. Work on `C[C@@H](CCCn1ccc2cc(-c3ncc4c(n3)NCC4(C)C)c(F)cc2c1=O)Nc1cn[nH]c(=O)c1C(F)(F)F` [Example 112, 6-(5,5-dimethyl-6,7-dihydropyrrolo[2,3-d]pyrimidin-2-yl)-7-fluoro-2-[(4S)-4-[[6-oxo-5-(trifluoromethyl)-1H-pyridazin-4-yl]amino]pentyl]isoquinolin-1-one] yielded an EC50 of 2.07 nM. `COc1cnc(-c2cc3ncn(CCC[C@H](C)Nc4cn[nH]c(=O)c4C(F)(F)F)c(=O)c3cc2F)nc1NCC(F)F` [Example 159, 7-[4-(2,2-difluoroethylamino)-5-methoxy-pyrimidin-2-yl]-6-fluoro-3-[(4S)-4-[[6-oxo-5-(trifluoromethyl)-1H-pyridazin-4-yl]amino]pentyl]quinazolin-4-one] was tested, and the EC50 was 283 nM. For `CC[C@@H](CCCn1cnc2cc(-c3ccc(OC(F)F)cn3)c(F)cc2c1=O)Nc1cn[nH]c(=O)c1C(F)(F)F` [Example 340, (S)-7-(5-(difluoromethoxy)pyridin-2-yl)-6-fluoro-3-(4-((6-oxo-5-(trifluoromethyl)-1,6-dihydropyridazin-4-yl)amino)hexyl)quinazolin-4(3H)-one], the EC50 was 97.1 nM. `O=c1[nH]ncc(N2CCC[C@H]2CCCn2ccc3cc(-c4ncc(C(F)(F)F)cn4)c(F)cc3c2=O)c1C(F)(F)F` [Example 120, (S)-7-fluoro-2-(3-(1-(6-oxo-5-(trifluoromethyl)-1,6-dihydropyridazin-4-yl)pyrrolidin-2-yl)propyl)-6-(5-(trifluoromethyl)pyrimidin-2-yl)isoquinolin-1(2H)-one] was tested, and the EC50 was 9.73 nM. In the case of `C[C@@H](CCCn1ccc2cc(-c3ncc(C(F)(F)F)c(N4CCS(=O)(=O)C4)n3)c(F)cc2c1=O)Nc1cn[nH]c(=O)c1C(F)(F)F` [Example 317, (S)-6-(4-(1,1-dioxidothiazolidin-3-yl)-5-(trifluoromethyl)pyrimidin-2-yl)-7-fluoro-2-(4-((6-oxo-5-(trifluoromethyl)-1,6-dihydropyridazin-4-yl)amino)pentyl)isoquinolin-1(2H)-one], the EC50 is reported as 45.1 nM. `C[C@@H](CCCn1ccc2cc(-c3ncc(C(F)(F)F)cc3Cl)c(F)cc2c1=O)Nc1cn[nH]c(=O)c1C(F)(F)F` [Example 326, (S)-6-(3-chloro-5-(trifluoromethyl)pyridin-2-yl)-7-fluoro-2-(4-((6-oxo-5-(trifluoromethyl)-1,6-dihydropyridazin-4-yl)amino)pentyl)isoquinolin-1(2H)-one] gave an EC50 of 113 nM. With `Nc1nc(-c2cc3ccn(C[C@@H]4CCC[C@H](Nc5cn[nH]c(=O)c5C(F)(F)F)C4)c(=O)c3cc2F)ncc1C(F)F` [Example 231, 6-(4-amino-5-(difluoromethyl)pyrimidin-2-yl)-7-fluoro-2-(((1R,3S)-3-((6-oxo-5-(trifluoromethyl)-1,6-dihydropyridazin-4-yl)amino)cyclohexyl)methyl)isoquinolin-1(2H)-one] the EC50 was 5.92 nM. With `CC[C@@H](CCCn1ccc2cc(-c3ncc(C(F)F)cn3)c(F)cc2c1=O)Nc1cn[nH]c(=O)c1C(F)(F)F` [Example 345, (S)-6-(5-(difluoromethyl)pyrimidin-2-yl)-7-fluoro-2-(4-((6-oxo-5-(trifluoromethyl)-1,6-dihydropyridazin-4-yl)amino)hexyl)isoquinolin-1(2H)-one] the EC50 was 6.71 nM. In the case of `C[C@@H](CCCn1ccc2cc(-c3ncc4ccsc4n3)c(F)cc2c1=O)Nc1cn[nH]c(=O)c1C(F)(F)F` [Example 292, (S)-7-fluoro-2-(4-((6-oxo-5-(trifluoromethyl)-1,6-dihydropyridazin-4-yl)amino)pentyl)-6-(thieno[2,3-d]pyrimidin-2-yl)isoquinolin-1(2H)-one], the EC50 is reported as 16 nM. In the case of `C[C@@H](CCCn1ccc2cc(-c3cnc(C(F)F)cn3)c(F)cc2c1=O)Nc1cn[nH]c(=O)c1C(F)(F)F` [Example 329, (S)-6-(5-(difluoromethyl)pyrazin-2-yl)-7-fluoro-2-(4-((6-oxo-5-(trifluoromethyl)-1,6-dihydropyridazin-4-yl)amino)pentyl)isoquinolin-1(2H)-one], the EC50 is reported as 97.7 nM. Compound `O=c1[nH]ncc(N[C@H]2CCC[C@@H](Cn3cnc4cc(-c5ncc(C(F)(F)F)c(Br)n5)c(F)cc4c3=O)C2)c1C(F)(F)F` [Example 458, 7-(4-bromo-5-(trifluoromethyl)pyrimidin-2-yl)-6-fluoro-3-(((1R,3S)-3-((6-oxo-5-(trifluoromethyl)-1,6-dihydropyridazin-4-yl)amino)cyclohexyl)methyl)quinazolin-4(3H)-one] has an EC50 of 2940 nM.
